Experimental data taken from PMC7684313, “In vitro and in vivo pharmacological activity of minor cannabinoids isolated from Cannabis sativa” (Scientific Reports, 2020).
Several values for one entry are separate records, joined by “and”; a condition that tells them apart may be missing. Equal values may be shown once. Entries after “also recorded” stand apart in the source; their conditions may differ. Read-outs that look alike come from different tables or passages of the source. Marks after values point to notes of the source that are not given here.

What was measured:
hCB1R [1] = target: T1, hCB1R (Homo sapiens, UniProt P21554); experiment: cell-based; details: CHO; read-out: hCB1R Emax, recruitment of βarrestin2
T1 construct: expressed in transfected cells; membranes
T1 sequence (P21554 whole entry): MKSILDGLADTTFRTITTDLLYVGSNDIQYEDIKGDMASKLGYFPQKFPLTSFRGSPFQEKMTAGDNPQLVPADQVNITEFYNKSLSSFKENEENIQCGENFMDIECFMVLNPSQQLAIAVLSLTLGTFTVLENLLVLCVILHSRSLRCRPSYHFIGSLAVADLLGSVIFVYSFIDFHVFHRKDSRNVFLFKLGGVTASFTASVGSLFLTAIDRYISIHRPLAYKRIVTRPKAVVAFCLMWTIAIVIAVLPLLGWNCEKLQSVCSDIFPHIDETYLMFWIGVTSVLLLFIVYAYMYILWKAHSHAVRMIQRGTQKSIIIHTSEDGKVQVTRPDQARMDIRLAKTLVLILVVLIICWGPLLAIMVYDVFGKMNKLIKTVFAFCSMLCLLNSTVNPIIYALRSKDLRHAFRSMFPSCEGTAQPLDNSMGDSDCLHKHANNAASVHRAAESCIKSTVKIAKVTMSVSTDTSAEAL

hCB2R [2] = target: T2, hCB2R (Homo sapiens, UniProt P34972); experiment: hCB2R-dependent recruitment of βarrestin2 (PathHunter CHO cells); format: cell-based; parameters: expressed in transfected cells; membranes; details: CHO
T2 sequence (P34972 whole entry): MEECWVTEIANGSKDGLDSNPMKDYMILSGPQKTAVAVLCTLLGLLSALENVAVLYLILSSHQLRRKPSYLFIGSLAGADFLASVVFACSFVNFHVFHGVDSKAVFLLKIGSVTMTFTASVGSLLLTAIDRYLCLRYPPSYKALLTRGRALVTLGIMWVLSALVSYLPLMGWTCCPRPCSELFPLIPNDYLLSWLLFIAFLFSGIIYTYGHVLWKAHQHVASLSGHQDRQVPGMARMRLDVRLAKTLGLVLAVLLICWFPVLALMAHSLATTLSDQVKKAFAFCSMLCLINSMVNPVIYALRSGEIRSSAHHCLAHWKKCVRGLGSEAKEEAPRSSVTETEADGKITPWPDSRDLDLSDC

C57BL/6 mice [3] = experiment: Time in the centre quadrant of the OFT (anxiety-like behaviour); format: in vivo; details: 10 mg/kg i.p.; 1 h post-injection
Protocol: (§1) Asterisk colour matches the treatment group assessed.
(§2) Concentration–response curves (CRC) were fit using non-linear regression with variable slope (4 parameters) and used to calculate EC50, Emin, and Emax (GraphPad, Prism, v. 8.0). […] In vivo data are presented as % MPE for catalepsy (MPE = 60 s) and anti-nociception (MPE = 20 s), °C for body temperature, and distance travelled (m) and % time in the centre quadrant in 5 min for OFT. Post-hoc analyses were performed using Tukey’s (one-way ANOVA) test. Homogeneity of variance was confirmed using Bartlett’s test. All data were evaluated for possible outliers using Grubb’s test in GraphPad.

C57BL/6 mice [4] = experiment: Nociception in the tail flick assay (tetrad); format: in vivo; details: 3 mg/kg i.p.; 15 min post-injection
Protocol: as §1, §2

CB2R = details: read-out: affinity for CB2R (previous reports); cited from earlier work
hCB2R [5] = target: T2, hCB2R; experiment: hCB2R-dependent inhibition of FSK-stimulated cAMP accumulation (HitHunter CHO cells); format: cell-based; parameters: expressed in transfected cells; membranes
CB1R = details: read-out: affinity for CB1R (previous reports); cited from earlier work
hCB1R [6] = target: T1, hCB1R; experiment: Ligand bias between cAMP inhibition and βarrestin2 recruitment at hCB1R (operational model); format: cell-based; details: ∆∆LogR > 0 bias for inhibition of cAMP, < 0 bias for βarrestin2; CP55,940 reference agonist
Protocol: (§3) Figure 8 Analysis of ligand bias for phytocannabinoids at hCB1R (a) and hCB2R (b).
as §2

hCB1R [7] = target: T1, hCB1R; experiment: cell-based; format: cell-based
hCB2R [8] = target: T2, hCB2R; experiment: Ligand bias between cAMP inhibition and βarrestin2 recruitment at hCB2R (operational model); format: cell-based; parameters: expressed in transfected cells; membranes; details: ∆∆LogR > 0 bias for inhibition of cAMP, < 0 bias for βarrestin2; CP55,940 reference agonist
Protocol: as §3, §2

hCB2R [9] = target: T2, hCB2R; experiment: [^3H]CP55,940 displacement from hCB2R CHO cell membranes
hCB1R [10] = target: T1, hCB1R; experiment: biochemical; format: binding
hCB2R [11] = target: T2, hCB2R; experiment: biochemical

For `CCCCCc1cc(O)c(C/C=C(\C)CCC=C(C)C)c(O)c1` [CBG, cannabigerol], the Emax (hCB1R [1]) was 0.41 ± 0.45%, the Emax (hCB2R [2]) was 22 ± 1.2% and the “time in the central quadrant of the OFT (modelled anxiolytic effect), in words” value (C57BL/6 mice [3]) was “anxiolytic-like effect”. The “anti-nociceptive effect (tail flick latency), in words” value (C57BL/6 mice [4]) was “weak anti-nociceptive effect; also recorded: small but statistically significant anti-nociceptive effect”, the Ki (CB2R) was greater than 1000 nM and the “agonist activity in hCB2R cAMP inhibition, in words” value (hCB2R [5]; 0.1 nM–10 µM, relative to CP55,940) was “weak partial agonist”. For the same compound, the Emax (hCB2R [5]; CHO) was 39 ± 11%, the EC50 (hCB2R [5]; HitHunter CHO hCB2R cells, 90 min, 95% CI in brackets, read-out: hCB2R EC50, inhibition of FSK-stimulated cAMP accumulation) was 130 nM and the Ki (CB1R) was greater than 1000 nM. For the same compound, the “ligand bias at hCB1R (∆∆LogR), in words” value (hCB1R [6]) was “bias for the inhibition of cAMP relative to βarrestin2”, the “agonist activity in hCB1R cAMP inhibition, in words” value (hCB1R [7]) was “weak partial agonist” and the Emax (hCB1R [7]; CHO, read-out: hCB1R Emax, inhibition of FSK-stimulated cAMP accumulation) was 68 ± 2.4%. The EC50 (hCB1R [7]; HitHunter CHO hCB1R cells, 90 min, 95% CI in brackets, read-out: hCB1R EC50, inhibition of FSK-stimulated cAMP accumulation) was 120 nM, the “ligand bias at hCB2R (∆∆LogR), in words” value (hCB2R [8]) was “bias for inhibition of cAMP relative to βarrestin2” and the “hCB2R Emin” value (hCB2R [9]; bottom of the concentration–response curve of [^3H]CP55,940 displacement, %CP55,940 response, mean ± SEM) was 32 ± 8.1%. The “extent of [^3H]CP55,940 displacement from hCB2R, in words” value (hCB2R [9]; concentration range 0.1 nM–10 µM) was “displaced [^3H]CP55,940 from hCB2R to an extent that was not different from CP55,940”, the Ki (hCB1R [10]) was 1300 nM and the “extent of [^3H]CP55,940 displacement from hCB1R, in words” value (hCB1R [10]) was “weakly displaced [^3H]CP55,940 at concentrations ≥ 1 µM”. The “hCB1R Emin” value (hCB1R [10]) was 49 ± 7.2*^ % and the Ki (hCB2R [11]) was 500 nM and 490 nM.
